The text below walks through data of US11591596B2, “Compounds and compositions including phosphorothioated oligodeoxynucleotide, and methods of use thereof” (City of Hope, priority 2015, dated 2023).

The subject of one test is human AML CD34+ cells. Description: Cell cycling, apoptosis and cell growth of AML CD34+ cells with Ara-c and Doxo. Type of test: cell-based. To be noted: 500 nM combined with Ara-c and Doxo. The method, then:
AML CD34+ cells were cultured with CpG-anti-miR-126 or CpG-SCR (500 nM) for 48 hours, then furthered cultured with miR126 inh+Ara-c+Doxo or SCR+A+D for 72 hours, then cell cycling, apoptosis (FIG. 12B) and cell growth (FIG. 12C) were analyzed.

The next test has as its system mouse CML LSC. Description: In vivo treatment of transplanted CML mice in combination with NIL. Conditions: 5 mg/kg i.v. 4 times a week plus NIL 50 mg/kg daily by gavage, 3 weeks. The method, then: FIGS. 24A-24I. […] BM cells from SCL-tTA/BCR-ABL mice (CD45.2) were transplanted into congenic B6 mice (CD45.1, n=40) to generate a cohort of mice with CML-like disease. Following confirmation of CML development at 4 weeks after transplantation, mice were randomly divided into 4 groups (n=10 each) and treated with CpG-miR-126 inhibitor (5 mg/kg i.v. 4 times a week), CpG-scrRNA (5 mg/kg, i.v. 4 times a week), CpG-miR-126 inhibitor plus NIL (50 mg/kg, daily by gavage), and CpG-scrRNA plus NIL for 3 weeks. Percentage of donor CML cells in peripheral blood (PB) (FIG. 24A), spleen (FIG. 24B) and bone marrow (BM) (FIG. 24C), numbers of donor CML LSK in spleen (FIG. 24D) and BM (FIG. 24E), and numbers of donor CML long term hematopoietic stem cells (LTHSC) in spleen (FIG. 24F) and BM (FIG. 24G) after 3 weeks' treatment were measured. […] The recipient mice were monitored for 16 weeks for CML cell engraftment in blood and leukemia development by WBC count. Frequency of LIC was quantified using L-Calc software (FIG. 24I). […]
BM cells from SCL-tTA/BCR-ABL mice (CD45.2) were transplanted into congenic B6 mice (CD45.1, n=40) to generate a cohort of mice with CML-like disease. […] The recipient mice were monitored for 16 weeks for CML cell engraftment in blood and leukemia development by WBC count. Frequency of LIC was quantified using L-Calc software (FIG. 24I). […]

Test [1] concerns long term hematopoietic stem cells (LTHSC, Lin-Sca-1+c-kit+Fit3-CD150+CD48−) from normal and CML mouse. As to the kind of experiment: Cell cycling of murine LTHSC by EDU/DAPi staining. The format is cell-based. To be noted: 500 nM, compared with the CpG-Scr. Here is the method:
Normal (NL) and CML murine LTHSC (Lin-Sca-1+Kit+Fit3− CD150+CD48− cells) were sorted and then treated with 500 nm CpG-miR126 inhibitor or CpG-SCR for 72 hours, then cell cycling was analyzed by EDU/DAPi staining.

Test [2] relates to Normal, cord blood, AML and CML CD34+ cells. As to the kind of experiment: Uptake of CpG-anti-miR126 inhibitor-Cy3 in primary CD34+ cells, Cy3 by flow cytometry. To be noted: 500 nM; primary patients' AML and CML CD34+ cells. Type of test: cell-based, human. Here is the method: FIGS. 2A-2D are flow cytometry histograms showing results of uptake tests in normal, cord blood, acute myeloid leukemia (AML), and chronic myeloid leukemia (CML) CD34+ cells. Normal (NL), cord blood (CB), AML and CML34+ cells were cultured with CpG-scramble RNA (500 nM) and CpG-miR126 inhibitor-Cy3 (500 nm) for 16 hours. FIG. 2A is a histogram showing uptake in NL/CB cells with 600 CpG siRNA. FIG. 2B is a histogram showing NL/CB cells with 500 CpG-siRNA. FIG. 2C is a histogram showing uptake in AML cells. FIG. 2D is a histogram showing uptake in CML cells. Uptake was measured by Cy3 expression in these cells by flow cytometry.
Normal, cord blood, AML and CML CD34+ cells were cultured with CpG-anti-miR126 inhibitor-Cy3 or anti-miR126 inhibitor-Cy3 for 16 hours, and the uptake was measured by Cy3 expression in the cells by flow cytometry (FIGS. 2A-2D). All tested cells internalized CpG-anti-miR126-Cy3 but not the anti-miR126-Cy3 with high efficiency.
Normal, cord blood, AML and CML CD34+ cells were cultured with CpG-scramble RNA (500 nM) and CpG-anti-miR126 inhibitor-Cy3 (500 nM) for 24 hours, and then miR126 and RNU44 (ctrl) expression in these cells were analyzed by Q-RT-PCR (FIG. 5). The miR126 expression levels were normalized to RNU44 and calculated by using the comparative 2^−ΔΔCt method.

[3] abbreviates: compared with Ara-c and Doxo alone.

Regarding “5′ G*G*T GCA TCG ATG CAGG*G*G* G*G (SEQ ID NO: 1) xxxxx mCmGmC mAmUmU mAmUmU mAmCmU mCmAmC mGmGmU mAmCmG mA (SEQ ID NO: 17) 3′ [CpG-anti-miR126]”, the cell growth entry with human AML CD34+ cells is “reduction of cell growth”. In addition, in the test on human AML CD34+ cells (setting [3]), the apoptosis result was “significantly increased” and the cell cycling result is listed as “significantly increased”. The “elimination of mouse CML LSC” value in the test on mouse CML LSC is given as “enhances elimination of mouse CML LSC”. Moreover, the cell-cycle entry entry in test [1] is “increased cell-cycle entry”. Moreover, the “internalization by primary cells” value in test [2] is given as “quickly internalized”.
